Several values for one entry are separate records, joined by “and”; a condition that tells them apart may be missing. Identical values can stand only once. Like-named read-outs stand apart in the source and are kept apart here.
Experiments:
5-HT2C = target: T1, 5-HT2C (Homo sapiens, UniProt P28335); test: FLIPR Ca2+ flux functional assay, 5-HT2C receptor (stably transfected HEK293); format: cell-based
T1 construct: host or cells: HEK293
T1 sequence (P28335 33-458): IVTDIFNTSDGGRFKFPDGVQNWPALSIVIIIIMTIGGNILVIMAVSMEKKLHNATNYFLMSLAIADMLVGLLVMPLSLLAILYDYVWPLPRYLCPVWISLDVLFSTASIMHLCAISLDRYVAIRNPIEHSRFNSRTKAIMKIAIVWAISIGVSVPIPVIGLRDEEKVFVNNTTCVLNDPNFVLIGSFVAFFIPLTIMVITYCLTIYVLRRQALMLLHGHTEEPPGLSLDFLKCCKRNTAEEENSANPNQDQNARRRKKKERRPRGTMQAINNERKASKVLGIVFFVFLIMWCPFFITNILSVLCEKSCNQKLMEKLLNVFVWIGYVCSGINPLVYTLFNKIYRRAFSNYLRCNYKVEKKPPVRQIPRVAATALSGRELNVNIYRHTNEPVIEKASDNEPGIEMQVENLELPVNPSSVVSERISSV
Experimental: (§1) Activity at 5-HT2A, 5-HT2B and 5-HT2C receptors was determined using a FLIPR Ca^2+ flux assay at WuXi AppTec Co. Ltd. (Hong Kong) Discovery Biology Unit according to their standard protocols. Briefly, stably transfected cells expressing the receptor of interest (HEK293 for 5-HT2A and 5-HT2C; CHO-K1 for 5-HT2B) were grown and plated in a 384 well plate and incubated at 37° C. and 5% CO2 overnight. A 250 mM stock solution of probenecid in FLIPR calcium assay buffer (10 mL) was freshly prepared and combined with a fluorescent dye (Fluo-4 Direct) to give a final assay concentration of 2.5 mM. Reference compounds were 4-fold serially diluted and the screening compounds were 3-fold serially diluted in 100% DMSO for 10 points using Agilent Bravo, and 750 nL was added to a 384 well compound plate using Echo along with 30 μL assay buffer. The fluorescent dye was then added to the assay plate along with assay buffer to a final volume of 40 μL. The cell plate was incubated for 50 min at 37° C. and 5% CO2 and placed into the FLIPR Tetra along with the compound plate. 10 μL of references and compounds were then transferred from the compound plate into the cell plate and the fluorescent signal was read.

[1] = In vivo pharmacokinetics: plasma and brain exposure after IP administration; design: species or system male C57BL/6 mice; details: for B:P Ratio Individual / Plasma Concentration (μM) Individual / concentration at 0.5 h / concentration at 0.083 h / concentration at 4 h / Kp at 0.083 h / Kp at 0.5 h / Kp at 4 h / Kp: 10 mg/kg; for Kp at 0.083 h / Kp at 0.5 h / Kp at 4 h / Kp: brain/plasma
Experimental: The study was conducted using established procedures in accordance with the Australian Code of Practice for the Care and Use of Animals for Scientific Purposes, and the study protocols were reviewed and approved by the Monash Institute of Pharmaceutical Sciences Animal Ethics Committee.
The systemic exposure of selected examples was studied in non-fasted male C57BL/6 mice weighing between 22.3-26.2 g. Mice had access to food and water ad libitum throughout the pre- and post-dose sampling period.
On the day of dosing, the formulation of each compound was prepared by dissolving solid compound in phosphate buffer saline (50 mM) using vortexing, creating colourless solutions (pH 6.1-6.3) for each compound.
Compounds were dosed to mice by IP injection (10 mL/kg dose volume via a 27G needle; n=9 mice per compound) and blood samples were collected at 5 and 30 min; 1, 2 and 4 h post-dose (n=3 mice per time point for each compound). A maximum of three blood samples were obtained from each mouse, with plasma samples being taken via submandibular bleed (approximately 120 μL). Once collected, blood samples were centrifuged immediately, supernatant plasma was removed, and stored at −80° C. until analysis by LCMS. In addition, at the 5 and 30 min and 4 h post-dose time points, the whole brain was rapidly removed from the carcass soon after the blood collection. The whole brains were blotted to remove excess blood, placed into pre-weighed polypropylene vials, and weighed. The brains were snap frozen in dry ice and subsequently stored frozen (−80° C.) until analysis.
Concentrations of test compound in plasma and tissue samples were determined using an LCMS/MS method validated for linearity, accuracy, precision, matrix factor and recovery (Table 2).
Test compound standard solutions were diluted from a concentrated stock solution (1 mg/mL in DMSO) using 50% acetonitrile in water (v/v) and a calibration curve was prepared in a matched matrix to the test samples.
Plasma: The plasma calibration curve was prepared by spiking aliquots of blank mouse plasma (25 μL) with test compound standard solutions (5 μL) and internal standard solution (5 μL of diazepam, 5 μg/mL in 50% acetonitrile in water). Test plasma samples (25 μL) were thawed, mixed, and then spiked with internal standard solution (5 μL). Plasma protein precipitation was performed by addition of acetonitrile (3-fold volume ratio) and thorough vortex mixing. Samples were centrifuged (RCF=9391×g) for 3 minutes and the supernatant (90 μL) was collected for analysis.
Tissue: Pre-weighed tissue samples (brain) were homogenised using a glass rod in buffer containing an EDTA/potassium fluoride solution (0.1 M/4 mg/mL) as a stabilisation cocktail to minimise the potential for ex vivo degradation (3 mL cocktail/g tissue). The tissue homogenate was briefly centrifuged (RCF=79×g) for 10 seconds to separate the foam layer before transferring an aliquot of the tissue homogenate (200 μL) to a fresh Eppendorf tube for sample extraction. Calibration standards were prepared by spiking blank brain homogenate (200 μL) with the solution standards (10 μL) and the internal standard (10 μL). Study samples were similarly prepared, except that acetonitrile (10 μL) was added instead of solution standards to maintain the same volume. Protein precipitation was carried out by the addition of a 3-fold volume of acetonitrile, followed by vortex mixing and centrifugation (RCF=9391×g) for 3 min to recover the supernatant for analysis.
Replicate analysis: Triplicate analytical replicate (ARs) samples were prepared similarly to the standards for each sample type at three concentrations (50, 500 and 2,000 ng/mL) and repeat injections of these ARs were included throughout the analytical run to assess assay performance. The extraction of the test compound from the standards and ARs were conducted as described above. […]

5-HT2A = target: T2, 5-HT2A (Homo sapiens, UniProt P28223); test: FLIPR Ca2+ flux functional assay, 5-HT2A receptor (stably transfected HEK293); format: cell-based
T2 construct: host or cells: HEK293
T2 sequence (P28223 whole entry): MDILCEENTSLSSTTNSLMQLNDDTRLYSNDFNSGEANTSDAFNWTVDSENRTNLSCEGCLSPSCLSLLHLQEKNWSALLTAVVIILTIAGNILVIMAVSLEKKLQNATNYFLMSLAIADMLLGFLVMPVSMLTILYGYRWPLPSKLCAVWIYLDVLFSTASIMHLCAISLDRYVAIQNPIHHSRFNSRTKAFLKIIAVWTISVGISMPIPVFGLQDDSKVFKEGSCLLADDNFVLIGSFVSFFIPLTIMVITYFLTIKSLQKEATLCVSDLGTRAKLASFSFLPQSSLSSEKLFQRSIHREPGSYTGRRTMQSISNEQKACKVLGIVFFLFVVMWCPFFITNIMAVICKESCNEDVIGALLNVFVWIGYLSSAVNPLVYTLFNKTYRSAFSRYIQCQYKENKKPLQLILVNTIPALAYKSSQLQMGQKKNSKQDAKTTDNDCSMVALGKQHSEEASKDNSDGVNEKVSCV
Experimental: as §1

[2] = agonist activity, Ca2+ flux, HEK293
[3] = IP 10 mg/kg, 0.083 h, individual mice
[4] = IP 10 mg/kg, 0.5 h, individual mice
[5] = IP 10 mg/kg, 4 h, individual mice
[6] = male, C57BL/6, mouse, plasma, IP 10 mg/kg

In the case of `COc1ccc2cccc(CCN(C)C(C)C)c2c1` [Example I-7, N-(2-(7-methoxynaphthalen-1-yl)ethyl)-N-methylpropan-2-amine], the EC50 (5-HT2C) is reported as 603 nM, the Emax (5-HT2C; [2]) is reported as 56% and the “Brain AUC0-4 h” value ([1]; IP 10 mg/kg) is reported as 32.3 µM·h. For the same compound, the “B:P Ratio Individual” value [1, 3] was 11 and 8.9, the “Plasma Concentration (μM) Individual” value [1, 3] was 0.896 µM and 1.00 µM and the concentration at 0.5 h ([1]; IP 10 mg/kg, 0.083 h, individual mice, read-out: Brain Parenchyma Concentration (μM) Individual) was 9.90 µM and 8.88 µM. For the same compound, the “B:P Ratio Individual” value [1, 4] was 18 and 26, the “Plasma Concentration (μM) Individual” value [1, 4] was 0.947 µM and 1.55 µM and the concentration at 0.5 h ([1]; IP 10 mg/kg, 0.5 h, individual mice, read-out: Brain Parenchyma Concentration (μM) Individual) was 17.9 µM and 17.5 µM and 40.1 µM. For the same compound, the “B:P Ratio Individual” value [1, 5] was 14 and 11, the “Plasma Concentration (μM) Individual” value [1, 5] was 0.0483 µM and 0.0571 µM and the concentration at 0.5 h ([1]; IP 10 mg/kg, 4 h, individual mice, read-out: Brain Parenchyma Concentration (μM) Individual) was 0.696 µM and 0.639 µM. It also gave a concentration at 0.083 h ([1]; male, C57BL/6, mouse, brain, ip, 0.083 h, individual mice, read-out: Brain Parenchyma Concentration (μM) Individual) of 6.41 µM, a concentration at 0.083 h ([1]; male, C57BL/6, mouse, brain, ip, 0.083 h, n = 3, read-out: Brain Parenchyma Concentration (μM) Mean ± SD) of 8.4 ± 1.79 µM and a concentration at 0.5 h ([1]; male, C57BL/6, mouse, brain, ip, 0.5 h, n = 3, read-out: Brain Parenchyma Concentration (μM) Mean ± SD) of 25.2 ± 13 µM. It also gave a concentration at 4 h ([1]; male, C57BL/6, mouse, brain, ip, 4 h, individual mice, read-out: Brain Parenchyma Concentration (μM) Individual) of 1.14 µM, a concentration at 4 h ([1]; male, C57BL/6, mouse, brain, ip, 4 h, n = 3, read-out: Brain Parenchyma Concentration (μM) Mean ± SD) of 0.0825 µM and a Kp at 0.083 h ([1]; male, C57BL/6, mouse, ip, 0.083 h, individual mice, read-out: B:P Ratio Individual) of 9.2. It also gave a Kp at 0.083 h ([1]; male, C57BL/6, mouse, ip, 0.083 h, n = 3, read-out: B:P Ratio Mean ± SD) of 9.7 ± 1.2, a Kp at 0.5 h ([1]; male, C57BL/6, mouse, ip, 0.5 h, individual mice, read-out: B:P Ratio Individual) of 17 and a Kp at 0.5 h ([1]; male, C57BL/6, mouse, ip, 0.5 h, n = 3, read-out: B:P Ratio Mean ± SD) of 21 ± 4.6. For the same compound, the Kp at 4 h ([1]; male, C57BL/6, mouse, ip, 4 h, individual mice, read-out: B:P Ratio Individual) was 16, the Kp at 4 h ([1]; male, C57BL/6, mouse, ip, 4 h, n = 3, read-out: B:P Ratio Mean ± SD) was 14 ± 2.4 and the Kp ([1]; male, C57BL/6, mouse, ip, (fu, brain * AUCbrain, 0-4 h)/(fu, plasma * AUCplasma, 0-4 h), read-out: (Unbound) time-averaged B:P) was 3.2. It also gave a Kp ([1]; male, C57BL/6, mouse, ip, AUCbrain, 0-4 h/AUCplasma, 0-4 h, read-out: (Total) time-averaged B:P) of 18, a concentration at 0.083 h ([1]; male, C57BL/6, mouse, plasma, ip, 0.083 h, individual mice, read-out: Plasma Concentration (μM) Individual) of 0.695 µM and a concentration at 0.083 h ([1]; male, C57BL/6, mouse, plasma, ip, 0.083 h, n = 3, read-out: Plasma Concentration (μM) Mean ± SD) of 0.864 ± 0.155 µM. The concentration at 0.5 h ([1]; male, C57BL/6, mouse, plasma, ip, 0.5 h, individual mice, read-out: Plasma Concentration (μM) Individual) was 1.03 µM, the concentration at 0.5 h ([1]; male, C57BL/6, mouse, plasma, ip, 0.5 h, n = 3, read-out: Plasma Concentration (μM) Mean ± SD) was 1.18 ± 0.329 µM and the concentration at 4 h ([1]; male, C57BL/6, mouse, plasma, ip, 4 h, individual mice, read-out: Plasma Concentration (μM) Individual) was 0.0723 µM. The concentration at 4 h ([1]; male, C57BL/6, mouse, plasma, ip, 4 h, n = 3, read-out: Plasma Concentration (μM) Mean ± SD) was 0.0592 ± 0.0121 µM, the Cmax [1, 6] was 1180 nM and the Tmax [1, 6] was 30 min. It also gave an AUC(0-t) ([1]; male, C57BL/6, mouse, plasma, IP 10 mg/kg, read-out: Plasma AUC0-4 h) of 1.82 µM·h, an AUC(0-inf) ([1]; male, C57BL/6, mouse, plasma, IP 10 mg/kg, read-out: Plasma AUC0-inf) of 1.89 µM·h and a half-life ([1]; male, C57BL/6, mouse, IP 10 mg/kg, plasma, read-out: Apparent t1/2 (converted)) of 46.2 min. It also gave an EC50 (5-HT2A) of 164 nM and an Emax (5-HT2A; [2]) of 84%.
